{
  "source": "patent US6358944B1",
  "about": "“Methods and compositions for treating generalized anxiety disorder” (Vela Pharmaceuticals, Inc., priority 1999, dated 2002)",
  "origin": "cited, not measured here",
  "data": [
    {"smiles": "CN(C)CCC=C1c2ccccc2C=Cc2ccccc21", "note": "[cyclobenzaprine, 3-(5H-Dibenzo[a,d]cyclohepten-5-ylidene)-N,N-dimethyl-1-propanamine]", "values": [
      {"measurement": "other less common side effects", "setting": "cyclobenzaprine treatment", "result": "nausea, tiredness, constipation, blurred vision, nervousness, confusion, abdominal pain and discomfort"},
      {"measurement": "principal side effects", "setting": "cyclobenzaprine treatment", "result": "drowsiness, dry mouth or tongue, dizziness and bad taste"},
      {"measurement": "organ toxicity", "setting": "cyclobenzaprine-treated patients at recommended doses", "result": "No indications of organ toxicity were found"},
      {"measurement": "toxic effects after overdose", "setting": "three individuals who ingested between 260 to 900 mg", "result": "Toxic effects were reported"}
    ]}
  ]
}
